Experimental data reported in patent US20030017195A1, “Method for oral drug delivery” (priority 2001, published 2003).

Experiments:
[1] = assay type: in vitro ADME, rat
Procedure: The experiment was performed in an in vitro perfusion device.
Patches (2 mm×2 mm) were put into intestine lumen (3 cm in length). One end of the lumen was connected to an infusion inlet, while the other end was connected to a receiving tube. Phosphate buffer solution (PBS) was infused in a constant rate (0.05 ml/min) into the lumen. The entire device was placed on a magnetic stirrer panel, and samples were taken from PBS outside the lumen at predetermined time interval. […] This perfusion system mimics in-vivo intestine fluid movement.
Bioavailability of drug transport from these patches was calculated. Bioavailability refers to the ratio of the amount of drug transported across the intestine to the total amount of drug released at the site of absorption.

[2] = Unidirectional release of drug from compressed patches in diffusion cell (PBS); assay type: physicochemical
Procedure: (2) Unidirectional Release of Drug from Compressed Patches: Release of a model drug (Sulforhodamine B) from patches was measured in vitro into phosphate buffered saline (PBS, pH 7.4, 0.01 M). To distinguish drug release from the mucoadhesive side and the backing side of the patch, the patches were placed in a custom-designed diffusion cell. The cell comprised two chambers placed side-by-side with an opening provided between the chambers of about 3.14 mm^2. A patch (4 mm in diameter) was placed between the two chambers and each chamber was filled with 6 ml PBS. Vacuum grease was used to seal the joint to avoid leakage of PBS. Amount of sulforhodamine B released from either side of the patch into the solution was quantified at 565 nm using a spectrophotometer (UV-1601, Shimadzu Corporation).
To assess whether unidirectionality of release is also observed when the patch is placed on the intestine, the following experiments were performed. A section of pig intestine was placed on a diffusion cell such that the mucosal side faced the upper (donor) chamber. The donor chamber was filled with 2 ml PBS. Under these conditions, the thickness of the PBS layer on the intestine was about […]. A sulforhodamine-containing patch (4 mm in diameter) was prepared using methods described above was gently placed on the intestine. A stirring bar was placed on a mesh, which was placed about 1 cm above the patch. The receiver chamber was filled with 12 ml PBS. A stirring bar was placed in the receiver chamber. The cell was placed on a magnetic stirrer and stirred at 400 rpm for 120 minutes. Amount of sulforhodamine B released into donor and receiver chambers was measured using the same spectrophotometer described above. Percentages of sulforhodamine B delivered into the receiver and donor chambers were calculated (Figure 12). By measuring the total amount of sulforhodamine B released from the patch, the percent of sulforhodamine B delivered into the intestine was also calculated.

[3] = Leakage of drug from patch edges; assay type: physicochemical; settings: within 10 minutes
Description: In a regular patch without the microspheres structure, when the patch is cut into smaller pieces, drug in the reservoir layer easily leaks from along the breaking edges. In the presence of the microspheres structure, the breakpoint usually occurs between mircrospheres, which make it difficult for the drug to penetrate through the backing layer. So, with the help of microspheres structure, the leakage of drug from the patch can be substantially controlled. Though drug could leak from those microspheres along the edge, where their coating would possibly be broken, for microspheres located away from the edge no leakage can be seen. In a quantitative measurement, within 10 minutes, 60% of sulforhodamine B was lost from the edges in patch.without microspheres structure, while only 10% leaked in the presence of this microspheres structure.

non-diabetic rats = experiment: Intestinal delivery of insulin patches in non-diabetic rats (blood glucose); assay type: in vivo, Sprague Dawley (SD) rats; settings: 10 IU/kg in the intestine
Procedure: Intestinal delivery of insulin patches in non-diabetic rats: All animal experiments were4conducted under aseptic conditions using institutionally approved protocols. Male Sprague Dawley (SD) rats, weighing 350-450 g fasted for 16 hours were anesthetized using gas anesthesia (1.25-4% isofluorane in oxygen). Rat intestine was exposed through a midline abdominal incision (2.0 cm). A small longitudinal incision (5 mm) was made about 5 cm from the proximal end of the small intestine. Patches (3-6 pieces, 2 mm in diameter) containing insulin (0.4-1.2 IU/patch, totally 5 IU/kg or 10 Iu/kg per rat) were randomly inserted through the opening into the lumen. The incisions were then sealed by surgical tissue (NEXABAND®, Veterinary Products Laboratories, Phoenix, Ariz.). […] Blood glucose level was measured using a glucometer (Excite® XL, Bayer Corporation, Elkhart, Ind.). […] The areas above the glucose curve (AAC) were calculated by the trapezoidal method (Carino G P, Jacob J S, Mathiowitz E. 2000. Nanosphere based oral insulin delivery. J Controlled Release 65:261-269). The apparent relative pharmacological bioavailability of insulin from non-diabetic rats was calculated by comparing the AAC following intestinal administration under different doses with that following subcutaneous administration.

Compound	fraction transported across rat intestine from patches compared to solution form [1]	difference in release profile when different compression pressures were used during patch preparation [2]	drug released from the backing side of the patch ([2]; 120 minutes, PBS pH 7.4)	drug released from the mucoadhesive side of the patch ([2]; 120 minutes, PBS pH 7.4)	share of released drug that was released from the mucoadhesive side ([2]; compressed patch)	sulforhodamine B leaked from the edges ([3]; patch in the presence of microspheres structure) [%]	sulforhodamine B lost from the edges ([3]; patch without microspheres structure) [%]	hypoglycemia after administration in the intestine (non-diabetic rats)
CCN(CC)c1ccc2c(-c3ccc(S(=O)(=O)O)cc3S(=O)(=O)[O-])c3ccc(=[N+](CC)CC)cc-3oc2c1 [sulforhodamine B]	higher fraction	no significant difference	less than 0.3%	about 10%	more than 97%	10	60	–
insulin solution: bovine insulin solution (pH 7), negative control administered in the intestine at 10 IU/kg	–	–	–	–	–	–	–	did not produce detectable hypoglycemia
